A word on the ED50: it is the dose at which the effect has come halfway, by size or by number of responders. By inhibition is commonly meant the relative decrease from the control value, in per cent.

Results on two compounds are retold here after patent US5554613A, “Heterocyclic derivatives” (Zeneca Limited, priority 1992, dated 1996).

The structures appear in SMILES notation.

Assay [1] has as its system de novo hepatic cholesterol synthesis. Put plainly: Acute rat cholesterol synthesis assay (de novo hepatic cholesterol synthesis from 14C-acetate). The conditions noted are these: female rats, oral gavage, ip or iv dosing, [2-14C]-acetate ip after 1 hour. It is filed as in vivo. The method, then: (b) Ache rat cholesterol synthesis assay.
This is an acute in vivo test in the rat to measure de novo hepatic cholesterol synthesis from exogenously administered ^14 C-acetate.
Female rats (35-55 g) are housed in reverse lighting conditions (red light from 0200h-1400h) for a period of about 2 weeks prior to test. Animals are allowed free access to chow and drinking water throughout this period. At test, animals should weigh 125-150 g.
Test compounds may be administered by oral gavage, dissolved or suspended in 0.5% polysorbate, or by ip or iv dosing. Control animals receive vehicle alone. After 1 hour the rats are injected ip with 25 μCi [2-^14 C]-acetate (NEN DUPONT. specific activity, 45-60 mCi/mmol NEC-085H, or AMERSHAM specific activity, 50-60mCi/mmol CFA 14) in a volume of 0.25 ml saline (100 μCi/ml). After a further hour, rats are terminally anaesthetised with halothane and a blood sample obtained from the abdominal vena cava.
1 ml of plasma is lyophilised and then saponified in 2 ml ethanolic KOH (1 part 33% KOH, 9 parts ethanol) at 75° C. for 2 hours. After addition of an equal quantity of water, non-saponifiable lipids are extracted with two 5 ml volumes of hexane. The hexane extracts are evaporated to dryness and the residues dissolved in ethanol to determine cholesterol specific radioactivity. ED50 values can be determined in the standard way.

In assay [2] the target is T1, Squalene synthase (Rattus norvegicus, UniProt Q02769).
T1 construct: rat liver microsomal protein; from tissue; host or cells: rat liver microsomes
T1 sequence (Q02769 1-416): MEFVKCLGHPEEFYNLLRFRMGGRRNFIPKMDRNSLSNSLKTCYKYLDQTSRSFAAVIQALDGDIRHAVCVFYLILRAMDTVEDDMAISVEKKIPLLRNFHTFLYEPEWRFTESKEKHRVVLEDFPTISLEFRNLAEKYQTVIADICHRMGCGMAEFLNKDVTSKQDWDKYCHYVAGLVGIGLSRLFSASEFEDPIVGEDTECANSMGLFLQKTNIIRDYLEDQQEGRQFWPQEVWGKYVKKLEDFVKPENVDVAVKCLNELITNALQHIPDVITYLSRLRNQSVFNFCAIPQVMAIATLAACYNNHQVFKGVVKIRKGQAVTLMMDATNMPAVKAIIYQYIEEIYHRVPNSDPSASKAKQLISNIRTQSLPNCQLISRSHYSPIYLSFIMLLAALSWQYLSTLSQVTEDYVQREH
Put plainly: Inhibition of Squalene synthase (formation of squalene from tritiated farnesyl pyrophosphate, rat liver microsomal protein). As to conditions: at a concentration of 2.5 μM; rat liver microsomes. It is filed as biochemical. The method, then:
(a) Inhibition of Squalene synthase
In this test, the ability of a compound to prevent the formation of squalene from a radioactive substrate (tritiated farnesyl pyrophosphate) is assessed.
The test compound is incubated at a concentration of […] in 200 μl of a buffered solution containing potassium phosphate (50 mM), MgCl2 (4.95 mM), KF (9.9 mM), NADPH (0.9 mM) and rat liver microsomal protein (20 μg). Rat liver microsomes are prepared by the method described in published European Patent Application No. 324,421 and stored in liquid nitrogen prior to assay. Assay vials are kept at 37° C. throughout the incubation.
The reaction is started with the addition of the substrate (1-[^3 H]-farnesyl pyrophosphate), final concentration 20 μM, and stopped after 15 minutes reaction time with the addition of 50 μl of 4% KOH. The reaction products are separated from unreacted substrate after application to a C-18 octadecyl 1 ccBond column (Analytichem Int product No. 617101). An aqueous fraction is eluted with 250 μl of 0.1M KOH. Squalene is then eluted with 1.0 ml 10% ethylacetate in hexane and radioactivity determined. The difference in radioactivity in the presence and absence of the test compound is used to determine the level of inhibition. […] The IC50 can then be determined from a plot of percentage inhibition against concentration of test compound.
On the technique in general: Liver microsomes are vesicles of endoplasmic reticulum, rich in cytochrome P450 enzymes.

Turning to `OC1(c2ccc(-c3ccccn3)cc2)CN2CCC1CC2` (stereo not drawn) [Example 2, 3-[4-(pyrid-2-yl)phenyl]quinuclidin-3-ol], the ED50 in assay [1] was found to be 14 mg/kg.

The compound `OC1(c2ccc(-c3cncnc3)cc2)CN2CCC1CC2` (stereo not drawn) [Example 4, 3-[4-(pyrimidin-5-yl)phenyl]quinuclidin-3-ol] yielded an ED50 in assay [1] of 4.5 mg/kg. In assay [2], this compound gave an inhibition at 2.5 µM of around 54%.
